Reference: PubChem BioAssay AID248 (DTP/NCI, 2004)
Several values for one entry are separate records, joined by “and”; a condition that tells them apart may be missing. Equal values may be shown once. Inconclusive results and toxic doses are left out. Rule as the data show it: active = T/C of 150% or more; inactive = T/C below 125%.

Test system: L1210 leukemia ip in BDF1 mice, survival T/C
Experiment: NCI In Vivo Anticancer Drug Screen. Data for tumor model L1210 Leukemia (intraperitoneal) in B6D2F1 (BDF1) mice
Conditions: endpoint: mean survival time, higher = longer survival
Outline: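 Survival endpoint. Drug-treated group vs vehicle group, expressed as T divided by C. Tumor passaged by transplantation.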

[1] = dose: 100.0 mg/kg/injection, schedule: Q01DX009 (ip), vehicle: saline with Tween-80
[2] = dose: 200.0 mg/kg/injection, schedule: Q01DX009 (ip), vehicle: saline with Tween-80
[3] = dose: 100.0 mg/kg/injection, schedule: Q04DX003 (ip), vehicle: Klucel (hydroxypropylcellulose) (HPC)
[4] = dose: 200.0 mg/kg/injection, schedule: Q04DX003 (ip), vehicle: Klucel (hydroxypropylcellulose) (HPC)
[5] = dose: 400.0 mg/kg/injection, schedule: Q04DX003 (ip), vehicle: Klucel (hydroxypropylcellulose) (HPC)
[6] = dose: 25.0 mg/kg/injection, schedule: Q04DX003 (ip), vehicle: saline
[7] = dose: 50.0 mg/kg/injection, schedule: Q04DX003 (ip), vehicle: saline
[8] = dose: 100.0 mg/kg/injection, schedule: Q04DX003 (ip), vehicle: saline
[9] = dose: 50.0 mg/kg/injection, schedule: Q01DX009 (ip), vehicle: saline with Tween-80
[10] = dose: 100.0 mg/kg/injection, schedule: Q04DX002 (ip), vehicle: Klucel (hydroxypropylcellulose) (HPC)
[11] = dose: 200.0 mg/kg/injection, schedule: Q04DX002 (ip), vehicle: Klucel (hydroxypropylcellulose) (HPC)
[12] = dose: 400.0 mg/kg/injection, schedule: Q04DX002 (ip), vehicle: Klucel (hydroxypropylcellulose) (HPC)

Measured: T/C

CC1([CH2][Hg][I])COCC([CH2][Hg][I])O1 (stereo unspecified)
inactive: dose: 0.78 mg/kg/injection, schedule: Q01DX001 (ip), vehicle: acetone 105 % of control | dose: 0.78 mg/kg/injection, schedule: Q04DX003 (ip), vehicle: saline 98 % of control | dose: 1.56 mg/kg/injection, schedule: Q01DX001 (ip), vehicle: acetone 94 % of control | dose: 1.56 mg/kg/injection, schedule: Q04DX003 (ip), vehicle: saline 96 % of control | dose: 3.12 mg/kg/injection, schedule: Q01DX001 (ip), vehicle: acetone 94 % of control | dose: 3.12 mg/kg/injection, schedule: Q04DX003 (ip), vehicle: saline 98 % of control | dose: 4.6 mg/kg/injection, schedule: Q04DX003 (ip), vehicle: acetone 93 % of control | dose: 5.75 mg/kg/injection, schedule: Q01DX009 (ip), vehicle: acetone 107 % of control | dose: 7.0 mg/kg/injection, schedule: Q04DX003 (ip), vehicle: acetone 96 % of control | dose: 10.5 mg/kg/injection, schedule: Q04DX003 (ip), vehicle: acetone 95 % of control | dose: 11.5 mg/kg/injection, schedule: Q01DX009 (ip), vehicle: acetone 107 % of control | dose: 15.0 mg/kg/injection, schedule: Q04DX003 (ip), vehicle: saline 110 % of control | dose: 23.0 mg/kg/injection, schedule: Q01DX009 (ip), vehicle: acetone 111 % of control | dose: 23.0 mg/kg/injection, schedule: Q04DX003 (ip), vehicle: saline 110 % of control

Nc1ncnc2c1ncn2C1OC(COP(=O)(O)O)C(O)C1OCc1ccccc1 (stereo unspecified)
inactive: dose: 100.0 mg/kg/injection, schedule: Q01DX005 (ip), vehicle: saline 112 % of control | dose: 200.0 mg/kg/injection, schedule: Q01DX005 (ip), vehicle: saline 95 % of control

CCN(C(=O)Nc1ccccc1)c1ccccc1C
inactive: [1] 97 % of control | dose: 100.0 mg/kg/injection, schedule: Q04DX003 (ip), vehicle: saline with Tween-80 111 % of control | [2] 86 % of control | dose: 200.0 mg/kg/injection, schedule: Q04DX003 (ip), vehicle: saline with Tween-80 98 % of control | dose: 400.0 mg/kg/injection, schedule: Q01DX009 (ip), vehicle: saline with Tween-80 92 % of control | dose: 400.0 mg/kg/injection, schedule: Q04DX003 (ip), vehicle: saline with Tween-80 102 % of control

Cc1cccc(N/N=C2\CCSc3ccccc32)c1
inactive: [3] 95 % of control | [4] 98 % of control | [5] 104 % of control

CCCCC(=O)N(CCCC)CCCC
inactive: dose: 100.0 mg/kg/injection, schedule: Q04DX002 (ip), vehicle: saline 107 % of control | dose: 200.0 mg/kg/injection, schedule: Q04DX002 (ip), vehicle: saline 114 % of control | dose: 400.0 mg/kg/injection, schedule: Q04DX002 (ip), vehicle: saline 93 % of control

COC(=O)C1C2CC3c4[nH]c5cc(OC)ccc5c4CCN3CC2CC(OC(=O)c2cc(OC)c(OC)c(OC)c2)C1OC (stereo unspecified)
inactive: dose: 6.25 mg/kg/injection, schedule: Q01DX009 (ip), vehicle: Klucel (hydroxypropylcellulose) (HPC) 94 % of control | dose: 12.5 mg/kg/injection, schedule: Q01DX009 (ip), vehicle: Klucel (hydroxypropylcellulose) (HPC) 96 % of control | dose: 25.0 mg/kg/injection, schedule: Q01DX009 (ip), vehicle: Klucel (hydroxypropylcellulose) (HPC) 105 % of control | [6] 106 % of control | dose: 50.0 mg/kg/injection, schedule: Q01DX009 (ip), vehicle: Klucel (hydroxypropylcellulose) (HPC) 113 % of control | [7] 119 % of control | [8] 111 % of control

COC1CCCCC1I (stereo unspecified)
inactive: [9] 95 % of control | [1] 95 % of control | [2] 93 % of control

C[n+]1cc2c3ccccc3c(N)cc2c2ccccc21
inactive: dose: 6.25 mg/kg/injection, schedule: Q01DX009 (ip), vehicle: water 114 % of control | dose: 12.5 mg/kg/injection, schedule: Q01DX009 (ip), vehicle: water 118 % of control | dose: 25.0 mg/kg/injection, schedule: Q01DX009 (ip), vehicle: water 117 % of control | dose: 25.0 mg/kg/injection, schedule: Q04DX003 (ip), vehicle: water 118 % of control | dose: 50.0 mg/kg/injection, schedule: Q01DX009 (ip), vehicle: water 90 % of control | dose: 50.0 mg/kg/injection, schedule: Q04DX003 (ip), vehicle: water 98 % of control | dose: 100.0 mg/kg/injection, schedule: Q04DX003 (ip), vehicle: water 93 % of control and 107 % of control

O=c1ssc(Cl)c1Cl
inactive: dose: 9.5 mg/kg/injection, schedule: Q01DX001 (ip), vehicle: other 94 % of control | dose: 10.0 mg/kg/injection, schedule: Q04DX003 (ip), vehicle: other 97 % of control | dose: 19.0 mg/kg/injection, schedule: Q01DX001 (ip), vehicle: other 103 % of control | dose: 20.0 mg/kg/injection, schedule: Q04DX003 (ip), vehicle: other 107 % of control | dose: 38.0 mg/kg/injection, schedule: Q01DX001 (ip), vehicle: other 87 % of control | dose: 40.0 mg/kg/injection, schedule: Q04DX003 (ip), vehicle: other 88 % of control

CCOC(=O)C1CC(C)c2[nH]c3ccccc3c21 (stereo unspecified)
inactive: [10] 110 % of control | [11] 107 % of control | [12] 89 % of control

O=c1ccccn1CCc1ccccc1
inactive: dose: 12.5 mg/kg/injection, schedule: Q04DX003 (ip), vehicle: saline with Tween-80 95 % of control | dose: 25.0 mg/kg/injection, schedule: Q04DX003 (ip), vehicle: saline with Tween-80 101 % of control | dose: 50.0 mg/kg/injection, schedule: Q04DX003 (ip), vehicle: saline with Tween-80 97 % of control

Cc1c[n+]([O-])ccc1[N+](=O)[O-]
inactive: dose: 25.0 mg/kg/injection, schedule: Q01DX009 (ip), vehicle: saline 90 % of control | [6] 105 % of control | dose: 50.0 mg/kg/injection, schedule: Q01DX009 (ip), vehicle: saline 90 % of control | [7] 97 % of control | dose: 100.0 mg/kg/injection, schedule: Q01DX009 (ip), vehicle: saline 88 % of control | [8] 90 % of control and 91 % of control

OC(c1ccccc1)(c1ccccc1)c1ccccc1
inactive: dose: 9.0 mg/kg/injection, schedule: Q01DX015 (ip), vehicle: saline 95 % of control | dose: 18.0 mg/kg/injection, schedule: Q01DX015 (ip), vehicle: saline 101 % of control | dose: 36.0 mg/kg/injection, schedule: Q01DX015 (ip), vehicle: saline 98 % of control | dose: 50.0 mg/kg/injection, schedule: Q04DX002 (ip), vehicle: Klucel (hydroxypropylcellulose) (HPC) 97 % of control | dose: 72.0 mg/kg/injection, schedule: Q01DX015 (ip), vehicle: saline 98 % of control | [10] 95 % of control and 103 % of control | dose: 100.0 mg/kg/injection, schedule: Q04DX002 (ip), vehicle: other 95 % of control | dose: 143.0 mg/kg/injection, schedule: Q01DX015 (ip), vehicle: saline 91 % of control | [11] 94 % of control | dose: 200.0 mg/kg/injection, schedule: Q04DX002 (ip), vehicle: other 95 % of control | dose: 286.0 mg/kg/injection, schedule: Q01DX015 (ip), vehicle: saline 89 % of control | [12] 103 % of control and 88 % of control | dose: 400.0 mg/kg/injection, schedule: Q04DX002 (ip), vehicle: other 92 % of control | dose: 572.0 mg/kg/injection, schedule: Q01DX015 (ip), vehicle: saline 98 % of control

O=C(Nc1ccc(Cl)c(Cl)c1)Nc1ccc(Cl)cc1O
inactive: dose: 100.0 mg/kg/injection, schedule: Q01DX001 (ip), vehicle: carboxymethylcellulose (CMC) 100 % of control | dose: 200.0 mg/kg/injection, schedule: Q01DX001 (ip), vehicle: carboxymethylcellulose (CMC) 96 % of control | dose: 400.0 mg/kg/injection, schedule: Q01DX001 (ip), vehicle: carboxymethylcellulose (CMC) 96 % of control

COC1OC(C)C(NC(C)=O)C(OCc2ccccc2)C1OCc1ccccc1 (stereo unspecified)
inactive: [3] 95 % of control | [4] 95 % of control | [5] 97 % of control

CCCCN1C(=O)N(CCCC)C(=O)C(Br)(Br)C1=O
inactive: [9] 97 % of control | [1] 105 % of control | [2] 97 % of control
